The record followed here is PubChem BioAssay AID328 (DTP/NCI, 2004).

For the assay, the system named is BDF1 mice, P388 leukemia ip, median survival T/C. The experiment in a line: NCI In Vivo Anticancer Drug Screen. Data for tumor model P388 Leukemia (intraperitoneal) in B6D2F1 (BDF1) mice. Particulars: endpoint: median survival time, higher = longer survival. The essentials: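 Transplantable tumour in mice; compound vs vehicle dosing; survival scored; ratio of treated to control reported.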

[1] abbreviates: dose: 50.0 mg/kg/injection, schedule: Q01DX009 (ip), vehicle: saline with Tween-80.
Where [2] appears, read: dose: 100.0 mg/kg/injection, schedule: Q01DX009 (ip), vehicle: saline with Tween-80.
[3] abbreviates: dose: 200.0 mg/kg/injection, schedule: Q01DX009 (ip), vehicle: saline with Tween-80.
Where [4] appears, read: dose: 400.0 mg/kg/injection, schedule: Q01DX009 (ip), vehicle: saline with Tween-80.
Where [5] appears, read: dose: 100.0 mg/kg/injection, schedule: Q04DX003 (ip), vehicle: saline with Tween-80.
[6] abbreviates: dose: 200.0 mg/kg/injection, schedule: Q04DX003 (ip), vehicle: saline with Tween-80.
Where [7] appears, read: dose: 400.0 mg/kg/injection, schedule: Q04DX003 (ip), vehicle: saline with Tween-80.
[8] abbreviates: dose: 100.0 mg/kg/injection, schedule: Q01DX001 (ip), vehicle: saline with Tween-80.
[9] abbreviates: dose: 200.0 mg/kg/injection, schedule: Q01DX001 (ip), vehicle: saline with Tween-80.
[10] abbreviates: dose: 100.0 mg/kg/injection, schedule: Q01DX009 (ip), vehicle: saline.
Setting [11] is: dose: 200.0 mg/kg/injection, schedule: Q01DX009 (ip), vehicle: saline.
Setting [12] is: dose: 400.0 mg/kg/injection, schedule: Q01DX009 (ip), vehicle: saline.
The mark [13] stands for this setting: dose: 100.0 mg/kg/injection, schedule: Q01DX001 (ip), vehicle: saline sonified.
Where [14] appears, read: dose: 200.0 mg/kg/injection, schedule: Q01DX001 (ip), vehicle: saline sonified.
Setting [15] is: dose: 400.0 mg/kg/injection, schedule: Q01DX001 (ip), vehicle: saline sonified.
Setting [16] is: dose: 100.0 mg/kg/injection, schedule: Q04DX003 (ip), vehicle: Klucel (hydroxypropylcellulose) (HPC).
Setting [17] is: dose: 200.0 mg/kg/injection, schedule: Q04DX003 (ip), vehicle: Klucel (hydroxypropylcellulose) (HPC).
Where [18] appears, read: dose: 400.0 mg/kg/injection, schedule: Q04DX003 (ip), vehicle: Klucel (hydroxypropylcellulose) (HPC).

Inconclusive results and toxic doses are left out.

As for `CC1=CC(=C2C=CC(=[N+](C)C)C=C2)C=C(C)S1`, the T/C by setting is: (dose: 3.12 mg/kg/injection, schedule: Q01DX009 (ip), vehicle: distilled water + Tween-80 + alcohol) 113 % of control; (dose: 6.25 mg/kg/injection, schedule: Q01DX009 (ip), vehicle: distilled water + Tween-80 + alcohol) 109 % of control; (dose: 12.5 mg/kg/injection, schedule: Q01DX009 (ip), vehicle: distilled water + Tween-80 + alcohol) 114 % of control; (dose: 25.0 mg/kg/injection, schedule: Q01DX009 (ip), vehicle: distilled water + Tween-80 + alcohol) 97 % of control.

As to `O=C1NC(=S)S/C1=C\c1ccncc1`, the T/C reads like this: under setting [1], 113 % of control; under setting [2], 106 % of control; under setting [3], 106 % of control; under setting [4], 106 % of control.

As for `C(=C\c1ccc2ccccc2n1)/c1ccc2c(c1)OCO2`, the T/C is 100 % of control under setting [5], 100 % of control under setting [6] and 88 % of control under setting [7].

On to `Cc1cc(C(C)(C)CC(C)(C)C)cc(O)c1O`, for which the T/C was 113 % of control (dose: 100.0 mg/kg/injection, schedule: Q04DX003 (ip), vehicle: other); 109 % of control (dose: 200.0 mg/kg/injection, schedule: Q04DX003 (ip), vehicle: other); 100 % of control (dose: 400.0 mg/kg/injection, schedule: Q04DX003 (ip), vehicle: other).

Consider `CCCCCCCCCCC(=O)[O][Sn]([CH](C)C)([CH](C)C)[CH](C)C`, for which the T/C runs as follows: (dose: 12.5 mg/kg/injection, schedule: Q01DX009 (ip), vehicle: saline + Tween-80 + alcohol) 109 % of control; (dose: 25.0 mg/kg/injection, schedule: Q01DX009 (ip), vehicle: saline + Tween-80 + alcohol) 119 % of control.

Take `COc1cccc2c1C(=N)c1c(O)c3c(c(O)c1C2=O)C[C@@](O)(C(C)=O)C[C@@H]3OC1CC(N)C(O)C(C)O1` (stereo partly drawn): the T/C runs as follows: (dose: 3.46 mg/kg/injection, schedule: Q04DX003 (ip), vehicle: saline) 177 % of control; (dose: 5.76 mg/kg/injection, schedule: Q04DX003 (ip), vehicle: saline) 186 % of control; (dose: 9.6 mg/kg/injection, schedule: Q04DX003 (ip), vehicle: saline) 180 % of control.

As to `Cc1ccc(C(=S)NC(=O)Nc2ccccc2)cc1`, the T/C is 93 % of control (dose: 50.0 mg/kg/injection, schedule: Q01DX001 (ip), vehicle: saline with Tween-80); 92 % of control under setting [8]; 90 % of control under setting [9].

Turning to `NC(=O)CC(N)c1nn[nH]n1` (stereo not drawn), the T/C reads like this: under setting [10], 95 % of control; under setting [11], 100 % of control; under setting [12], 90 % of control.

As for `N#C/C(=C/Cc1ccccc1)Nc1ccccc1`, the T/C was 100 % of control under setting [2]; 113 % of control under setting [5]; 115 % of control under setting [3]; 118 % of control under setting [6]; 115 % of control under setting [4]; 104 % of control under setting [7].

In the case of `OCC1CC=CCC1` (stereo not drawn), the T/C reads like this: under setting [10], 114 % of control; under setting [11], 109 % of control; under setting [12], 119 % of control.

Take `ICCCCCCCCCC[n+]1ccc2ccccc2c1`: the T/C by setting is: (dose: 12.5 mg/kg/injection, schedule: Q01DX005 (ip), vehicle: saline with Tween-80) 120 % of control; (dose: 25.0 mg/kg/injection, schedule: Q01DX005 (ip), vehicle: saline with Tween-80) 122 % of control.

In the case of `C(=N\Nc1nnn(Cc2ccccc2)n1)/c1ccccc1`, the T/C was 90 % of control under setting [5], 95 % of control under setting [6] and 95 % of control under setting [7].

Take `O=C(NO)c1cc(O)c(O)c(O)c1`: the T/C is, setting by setting: (dose: 50.0 mg/kg/injection, schedule: Q01DX005 (ip), vehicle: distilled water + Tween-80) 123 % of control; (dose: 200.0 mg/kg/injection, schedule: Q01DX005 (ip), vehicle: distilled water + Tween-80) 150 % of control; (dose: 400.0 mg/kg/injection, schedule: Q01DX005 (ip), vehicle: distilled water + Tween-80) 153 % of control.

As for `COc1cccc(CC2=C3CCCN(C(=O)c4ccccc4)C3CCC2=O)c1` (stereo not drawn), the T/C under setting [13] is 90 % of control, the T/C under setting [14] was 90 % of control and the T/C under setting [15] is 104 % of control.

Consider `COc1ccccc1-n1c(=O)c(N=Nc2ccccc2)c(O)n(-c2ccccc2C)c1=S`, for which the T/C under setting [8] is 95 % of control and the T/C under setting [9] was 95 % of control.

For the molecule `COC(=O)C(CC(=O)c1ccccc1)NCc1ccccc1` (stereo not drawn), the T/C reads like this: under setting [8], 100 % of control; under setting [9], 95 % of control; (dose: 400.0 mg/kg/injection, schedule: Q01DX001 (ip), vehicle: saline with Tween-80) 100 % of control.

Regarding `Cc1cc(C)c(-n2c(-c3ccc(Cl)cc3)nnc2-c2ccc(Br)cc2)c(C)c1`, the T/C under setting [16] is 104 % of control, the T/C under setting [17] was 100 % of control and the T/C under setting [18] was 90 % of control.

In the case of `CCCCCn1c(Cl)c(/C=N\Nc2ccccc2[N+](=O)[O-])c2ccccc21`, the T/C (dose: 100.0 mg/kg/injection, schedule: Q01DX001 (ip), vehicle: Klucel (hydroxypropylcellulose) (HPC)) is 105 % of control; the T/C (dose: 200.0 mg/kg/injection, schedule: Q01DX001 (ip), vehicle: Klucel (hydroxypropylcellulose) (HPC)) was 96 % of control; the T/C (dose: 400.0 mg/kg/injection, schedule: Q01DX001 (ip), vehicle: Klucel (hydroxypropylcellulose) (HPC)) was 118 % of control.

In the case of `Cc1ccc2ccccc2c1Cc1c(C=O)[nH]c(=S)[nH]c1=O`, the T/C is, setting by setting: under setting [5], 104 % of control; under setting [6], 122 % of control.

As for `C=C1C(C)C2C(Cc3ccccc3)NC(=O)C23C(OC(C)=O)C=CC(C)(O)C(=O)C(C)C/C=C/C3C1O` (stereo not drawn), the T/C (dose: 0.62 mg/kg/injection, schedule: Q01DX009 (ip), vehicle: saline with Tween-80) was 104 % of control; the T/C (dose: 1.25 mg/kg/injection, schedule: Q01DX009 (ip), vehicle: saline with Tween-80) was 110 % of control; the T/C (dose: 1.6 mg/kg/injection, schedule: Q01DX009 (ip), vehicle: saline) is 157 % of control; the T/C (dose: 2.5 mg/kg/injection, schedule: Q01DX009 (ip), vehicle: saline) was 172 % of control.

Consider `O=C(O)CCNCc1ccccc1`, for which the T/C is 93 % of control (dose: 25.0 mg/kg/injection, schedule: Q01DX009 (ip), vehicle: saline); 108 % of control (dose: 50.0 mg/kg/injection, schedule: Q01DX009 (ip), vehicle: saline); 117 % of control under setting [10]; 88 % of control under setting [11].

Take `CC12C3C(=O)NC45CCCC41C5(c1ccccc1)C32c1ccccc1` (stereo not drawn): the T/C under setting [13] is 95 % of control, the T/C under setting [14] was 95 % of control and the T/C under setting [15] was 86 % of control.

Turning to `C=Cn1cnc2c(N)ncnc21`, the T/C was 103 % of control under setting [5], 113 % of control under setting [6] and 106 % of control under setting [7].

With `O=[N+]([O-])c1cccc2c[n+](Cc3ccc(Br)cc3)ccc12`, the T/C (dose: 12.5 mg/kg/injection, schedule: Q01DX009 (ip), vehicle: saline with Tween-80) was 123 % of control.

With `CCN(CC)CCNc1ccc(C)c2sc3ccc(O)cc3c(=O)c12`, the T/C is, setting by setting: under setting [1], 183 % of control; under setting [2], 94 % of control.

Consider `COC(=O)/C(C#N)=C\c1ccccc1`, for which the T/C (dose: 50.0 mg/kg/injection, schedule: Q04DX003 (ip), vehicle: saline with Tween-80) is 104 % of control and the T/C under setting [5] was 109 % of control.

Turning to `CCCCCCCCCCCCc1c(C(OC)OC)[nH]c(=S)[nH]c1=O`, the T/C was 107 % of control (dose: 100.0 mg/kg/injection, schedule: Q01DX009 (ip), vehicle: Klucel (hydroxypropylcellulose) (HPC)); 104 % of control under setting [16]; 88 % of control (dose: 200.0 mg/kg/injection, schedule: Q01DX009 (ip), vehicle: Klucel (hydroxypropylcellulose) (HPC)); 100 % of control under setting [17]; 96 % of control (dose: 400.0 mg/kg/injection, schedule: Q01DX009 (ip), vehicle: Klucel (hydroxypropylcellulose) (HPC)); 100 % of control under setting [18].
